US20050112573A1, “Method of detecting toxic substance” (priority 2001, published 2005)

Test system: yeast genes (level of expressed mRNA)
Assay: DNA chip analysis of expressed mRNA of yeast genes after 2 h culture with a toxic chemical substance
Assay type: cell-based, Saccharomyces cerevisiae S288C
Procedure: Yeast (Saccharomyces cerevtisiae S288C (α SUC2mal mel gap2 CUP1)) were cultured at 25° C. on YPD medium (yeast extract 1%, polypepton 2%, glucose 2%). One of toxic chemical substances was added to the cell at logarithmic growth phase, and the cell was further cultured for two hours. Cell was cultured without any chemical substance in the same condition, and was used as control. Concentrations of the chemical substances were defined to inhibit the growth of the yeast but not lead to death.
After the completion of cultivation, the culture was centrifuged to collect the cells. To the cells, sodium acetate buffer (50 mM sodium acetate, 10 mM EDTA, 1% SDS) was added, and the mixture was shaken at 65° C. for five minutes, followed by returning to room temperature, and obtaining the supernatant, which procedure was repeated two times. To the supernatant, ½ amount of a solution of phenol/chloroform was added, and the mixture was centrifuged to give a supernatant, which was added with an equal amount of chloroform, and the mixture was centrifuged to give a supernatant. To the supernatant, an equal amount of isopropanol containing 0.3 M sodium acetate was added, and the mixture was allowed to stand at room temperature for 30 minutes, after which the mixture was centrifuged to give a sediment of the whole RNAs. Seventy % ethanol was added to the sediment, and the mixture was again centrifuged to give a sediment, which was then dried and dissolved in water. mRNA was isolated from the whole RNAs as followings. In view of the fact that a poly A chain is attached to the 3′ terminus of mRNA, a polynucleotide having a poly T structure which was immobilized on the surface of latex beads was used to trap the mRNA, and then the mRNA was washed and eluted with spine column (Oligotex-dT30<Super>mRNA Purification Kit, Takara). Reverse transcription of the mRNA was conducted with a reverse transcriptase (Super Script II Reverse Transcriptase; catalogue No. 18064-014, GibcoBRL) using fluorescence-labeled nucleotides to give cDNAs that were introduced with Cy3-dUTP or Cy5-dUTP during the reverse transcription.
The labeled cDNAs were dissolved in TE buffer (10 mM Tris-HCl/1 mM EDTA, pH8.0), and the solution was dropped on the DNA chip containing the whole genes of yeast (DNA Chip Research Inc. Japan) so that the cDNAs were hybridized on the DNA chip at 65° C. for over 12 hours. The fluoresces intensity of the DNA chip was read with a scanner, and the ratio relative to the fluorescence intensity resulting from the absence of chemical substance was estimated as the following, which is shown in Tables 1 to 9: [formula]
In the Tables, “Intensity” indicated in the rightmost column is a value of the level of expressed mRNA of each gene in control cells as divided by the average level of the expressions of the whole genes.

With `C[S+](C)[O-]` [(15), dimethylsulfoxide] the “The level of expressed mRNA in the presence of chemical substance/absence: YGR293C” value (gene YGR293C) was 0.7, the “The level of expressed mRNA in the presence of chemical substance/absence: YHL006C” value (gene YHL006C) was 0.6 and the “The level of expressed mRNA in the presence of chemical substance/absence: YHL021C” value (gene YHL021C) was 1.2. For the same compound, the “The level of expressed mRNA in the presence of chemical substance/absence: YHL037C” value (gene YHL037C) was 0.8, the “level of expressed mRNA in the presence of chemical substance/in its absence” value (from here on “level … of chemical substance/in its absence”) (gene YHR037W) was 1.1 and the “The level of expressed mRNA in the presence of chemical substance/absence: YHR083W” value (gene YHR083W) was 1.3. The “level … of chemical substance/in its absence” value (gene YHR092C) was 0.2, the “The level of expressed mRNA in the presence of chemical substance/absence: YHR095W” value (gene YHR095W) was 0.8 and the “The level of expressed mRNA in the presence of chemical substance/absence: YHR105W” value (gene YHR105W) was 0.9. For the same compound, the “The level of expressed mRNA in the presence of chemical substance/absence: YHR134W” value (gene YHR134W) was 1.0, the “level … of chemical substance/in its absence” value (gene YHR137W) was 2.8 and the “The level of expressed mRNA in the presence of chemical substance/absence: YHR180W” value (gene YHR180W) was 0.8. The “The level of expressed mRNA in the presence of chemical substance/absence: YHR181W” value (gene YHR181W) was 1.4, the “level … of chemical substance/in its absence” value (gene YHR190W) was 1.3 and the “level … of chemical substance/in its absence” value (gene YIL033C) was 1.0. For the same compound, the “The level of expressed mRNA in the presence of chemical substance/absence: YIL108W” value (gene YIL108W) was 1.8, the “The level of expressed mRNA in the presence of chemical substance/absence: YIL127C” value (gene YIL127C) was 0.7 and the “level … of chemical substance/in its absence” value (gene YIL154C) was 4.3. For the same compound, the “The level of expressed mRNA in the presence of chemical substance/absence: YIL165C” value (gene YIL165C) was 0.8, the “level … of chemical substance/in its absence” value (gene YIL167W) was 0.6 and the “level … of chemical substance/in its absence” value (gene YIR035C) was 1.4. For the same compound, the “The level of expressed mRNA in the presence of chemical substance/absence: YJL017W” value (gene YJL017W) was 1.1, the “The level of expressed mRNA in the presence of chemical substance/absence: YJL032W” value (gene YJL032W) was 1.0 and the “The level of expressed mRNA in the presence of chemical substance/absence: YJL037W” value (gene YJL037W) was 1.6. For the same compound, the “The level of expressed mRNA in the presence of chemical substance/absence: YJL049W” value (gene YJL049W) was 0.8, the “level … of chemical substance/in its absence” value (gene YJL088W) was 5.7 and the “The level of expressed mRNA in the presence of chemical substance/absence: YJL097W” value (gene YJL097W) was 1.1. For the same compound, the “level … of chemical substance/in its absence” value (gene YJL132W) was 1.1, the “level … of chemical substance/in its absence” value (gene YJL196C) was 0.6 and the “The level of expressed mRNA in the presence of chemical substance/absence: YJR030C” value (gene YJR030C) was 0.8. For the same compound, the “The level of expressed mRNA in the presence of chemical substance/absence: YJR044C” value (gene YJR044C) was 1.6, the “level … of chemical substance/in its absence” value (gene YJR142W) was 0.6 and the “level … of chemical substance/in its absence” value (gene YJR148W) was 3.2. For the same compound, the “level … of chemical substance/in its absence” value (gene YJR159W) was 2.3, the “The level of expressed mRNA in the presence of chemical substance/absence: YKL051W” value (gene YKL051W) was 1.5 and the “The level of expressed mRNA in the presence of chemical substance/absence: YKL059C” value (gene YKL059C) was 1.1. The “level … of chemical substance/in its absence” value (gene YKL067W) was 1.1, the “The level of expressed mRNA in the presence of chemical substance/absence: YKL090W” value (gene YKL090W) was 0.8 and the “The level of expressed mRNA in the presence of chemical substance/absence: YKL094W” value (gene YKL094W) was 1.0. The “The level of expressed mRNA in the presence of chemical substance/absence: YKL097C” value (gene YKL097C) was 0.8, the “The level of expressed mRNA in the presence of chemical substance/absence: YKL100C” value (gene YKL100C) was 1.7 and the “level … of chemical substance/in its absence” value (gene YKR039W) was 1.7. The “The level of expressed mRNA in the presence of chemical substance/absence: YKR040C” value (gene YKR040C) was 1.1, the “The level of expressed mRNA in the presence of chemical substance/absence: YLR097C” value (gene YLR097C) was 0.9 and the “level … of chemical substance/in its absence” value (gene YLR142W) was 1.6. For the same compound, the “level … of chemical substance/in its absence” value (gene YLR180W) was 2.5, the “The level of expressed mRNA in the presence of chemical substance/absence: YLR226W” value (gene YLR226W) was 1.3 and the “level … of chemical substance/in its absence” value (gene YLR273C) was 2.6. The “level … of chemical substance/in its absence” value (gene YLR300W) was 2.7, the “level … of chemical substance/in its absence” value (gene YLR307W) was 3.9 and the “The level of expressed mRNA in the presence of chemical substance/absence: YLR338W” value (gene YLR338W) was 1.5. For the same compound, the “The level of expressed mRNA in the presence of chemical substance/absence: YLR339C” value (gene YLR339C) was 1.0, the “The level of expressed mRNA in the presence of chemical substance/absence: YLR392C” value (gene YLR392C) was 0.5 and the “The level of expressed mRNA in the presence of chemical substance/absence: YLR415C” value (gene YLR415C) was 1.0. For the same compound, the “The level of expressed mRNA in the presence of chemical substance/absence: YLR427W” value (gene YLR427W) was 0.8, the “The level of expressed mRNA in the presence of chemical substance/absence: YML013W” value (gene YML013W) was 2.2 and the “The level of expressed mRNA in the presence of chemical substance/absence: YML029W” value (gene YML029W) was 0.8.
